# Measured values: the supplement of paper PMC5662764
# ± gives the standard deviation of the averaged measurements.
# Legend:
# Assay in all cases: normalised growth rate inhibition (GR value) relative to DMSO control (GR (1 = untreated growth, 0 = cytostasis, <0 = cytotoxic)); higher = less growth inhibition
# Settings in all cases: 72 h
# [1] = tested on: BT20
# Method: (§1)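 Breast cancer cell lines (BT-20, Hs 578T, MCF 10A, MCF7, MDA-MB-231, SK-BR-3) were plated in 384-well plates and treated 24 h later with drugs at six concentrations (0.04-10 µM). Viable cells were counted by Hoechst/dead-cell-stain imaging at 0 and 72 h. Counts were normalised to DMSO controls on the same plate to give the relative cell count and the growth-rate inhibition (GR) value; technical plate triplicates were averaged for each biological replicate.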
# [2] = tested on: HS578T
# Method: as §1
# [3] = tested on: MCF10A
# Method: as §1
# [4] = tested on: MCF7
# Method: as §1
# [5] = tested on: MDAMB231
# Method: as §1
# [6] = tested on: SKBR3
# Method: as §1
SMILES,normalised growth rate inhibition ([1]; 0.04 µM),normalised growth rate inhibition ([1]; 0.12 µM),normalised growth rate inhibition ([1]; 0.37 µM),normalised growth rate inhibition ([1]; 1.11 µM),normalised growth rate inhibition ([1]; 3.33 µM),normalised growth rate inhibition ([1]; 10 µM),normalised growth rate inhibition ([2]; 0.04 µM),normalised growth rate inhibition ([2]; 0.12 µM),normalised growth rate inhibition ([2]; 0.37 µM),normalised growth rate inhibition ([2]; 1.11 µM),normalised growth rate inhibition ([2]; 3.33 µM),normalised growth rate inhibition ([2]; 10 µM),normalised growth rate inhibition ([3]; 0.04 µM),normalised growth rate inhibition ([3]; 0.12 µM),normalised growth rate inhibition ([3]; 0.37 µM),normalised growth rate inhibition ([3]; 1.11 µM),normalised growth rate inhibition ([3]; 3.33 µM),normalised growth rate inhibition ([3]; 10 µM),normalised growth rate inhibition ([4]; 0.04 µM),normalised growth rate inhibition ([4]; 0.12 µM),normalised growth rate inhibition ([4]; 0.37 µM),normalised growth rate inhibition ([4]; 1.11 µM),normalised growth rate inhibition ([4]; 3.33 µM),normalised growth rate inhibition ([4]; 10 µM),normalised growth rate inhibition ([5]; 0.04 µM),normalised growth rate inhibition ([5]; 0.12 µM),normalised growth rate inhibition ([5]; 0.37 µM),normalised growth rate inhibition ([5]; 1.11 µM),normalised growth rate inhibition ([5]; 3.33 µM),normalised growth rate inhibition ([5]; 10 µM),normalised growth rate inhibition ([6]; 0.04 µM),normalised growth rate inhibition ([6]; 0.12 µM),normalised growth rate inhibition ([6]; 0.37 µM),normalised growth rate inhibition ([6]; 1.11 µM),normalised growth rate inhibition ([6]; 3.33 µM),normalised growth rate inhibition ([6]; 10 µM)
CC(=O)Nc1nc(C)c(-c2ccc(Cl)c(S(=O)(=O)NCCO)c2)s1,1.024 ± 0.0077,1.02 ± 0.03,1.05 ± 0.034,0.973 ± 0.068,0.746 ± 0.033,0.0954 ± 0.044,1.013 ± 0.0069,1.01 ± 0.02,0.99 ± 0.056,0.929 ± 0.093,0.585 ± 0.16,0.162 ± 0.19,0.9973 ± 0.0055,0.995 ± 0.02,0.993 ± 0.029,0.959 ± 0.026,0.831 ± 0.094,0.502 ± 0.077,1.08 ± 0.094,1.03 ± 0.14,0.994 ± 0.22,0.88 ± 0.28,0.441 ± 0.11,0.0722 ± 0.078,1.01 ± 0.055,1.01 ± 0.061,0.999 ± 0.1,0.919 ± 0.061,0.78 ± 0.036,0.272 ± 0.021,1.09 ± 0.03,1.09 ± 0.045,1.01 ± 0.094,0.916 ± 0.12,0.597 ± 0.037,0.00524 ± 0.12
CCn1c(-c2nonc2N)nc2c(C#CC(C)(C)O)ncc(OC[C@H]3CCCNC3)c21,0.8181 ± 0.0049,0.779 ± 0.062,0.636 ± 0.11,0.521 ± 0.12,0.453 ± 0.062,0.371 ± 0.047,0.846 ± 0.058,0.798 ± 0.075,0.726 ± 0.084,0.713 ± 0.11,0.717 ± 0.13,0.728 ± 0.12,0.989 ± 0.029,0.976 ± 0.024,0.937 ± 0.039,0.873 ± 0.034,0.872 ± 0.039,0.891 ± 0.042,0.6 ± 0.073,0.499 ± 0.17,0.42 ± 0.13,0.374 ± 0.096,0.361 ± 0.09,0.312 ± 0.09,0.86 ± 0.088,0.904 ± 0.021,0.906 ± 0.021,0.94 ± 0.026,1.01 ± 0.032,0.869 ± 0.08,0.578 ± 0.064,0.555 ± 0.035,0.556 ± 0.038,0.571 ± 0.039,0.62 ± 0.032,0.658 ± 0.065
CN(c1ccccc1CNc1nc(Nc2ccc3c(c2)CC(=O)N3)ncc1C(F)(F)F)S(C)(=O)=O,0.902 ± 0.043,0.763 ± 0.035,0.414 ± 0.12,0.121 ± 0.12,0.0389 ± 0.12,-0.19 ± 0.21,0.761 ± 0.021,0.694 ± 0.042,0.537 ± 0.063,0.27 ± 0.068,0.181 ± 0.076,-0.0957 ± 0.088,0.744 ± 0.029,0.501 ± 0.056,0.233 ± 0.087,0.106 ± 0.019,0.0578 ± 0.032,-0.154 ± 0.16,0.742 ± 0.065,0.471 ± 0.1,0.184 ± 0.078,0.0628 ± 0.026,-0.0235 ± 0.037,-0.28 ± 0.03,0.913 ± 0.058,0.78 ± 0.082,0.49 ± 0.2,0.241 ± 0.13,0.11 ± 0.13,-0.197 ± 0.22,1.04 ± 0.024,0.653 ± 0.081,0.306 ± 0.017,0.0323 ± 0.071,-0.0178 ± 0.071,-0.141 ± 0.18
Cc1[nH]c(/C=C2\C(=O)Nc3ccc(S(=O)(=O)Cc4c(Cl)cccc4Cl)cc32)c(C)c1C(=O)N1CCC[C@@H]1CN1CCCC1,1.017 ± 0.0089,1.01 ± 0.052,1.003 ± 0.0079,0.976 ± 0.042,0.973 ± 0.035,0.22 ± 0.42,1 ± 0.028,1.002 ± 0.003,1 ± 0.011,0.96 ± 0.032,0.954 ± 0.018,-0.131 ± 0.58,0.991 ± 0.01,0.9827 ± 0.0045,0.9763 ± 0.0045,0.967 ± 0.012,0.9647 ± 0.0068,0.544 ± 0.43,1.06 ± 0.012,1.06 ± 0.073,1.05 ± 0.051,1.01 ± 0.059,0.923 ± 0.052,0.665 ± 0.17,1.03 ± 0.045,1.02 ± 0.069,1.02 ± 0.043,0.997 ± 0.053,0.94 ± 0.023,-0.343 ± 0.3,1.04 ± 0.071,1.06 ± 0.052,1.07 ± 0.087,1.06 ± 0.098,0.956 ± 0.047,0.012 ± 0.5
Cc1[nH]c(/C=C2\C(=O)Nc3ccc(S(=O)(=O)N(C)c4cccc(Cl)c4)cc32)c(C)c1C(=O)N1CCN(C)CC1,1.06 ± 0.037,1.04 ± 0.017,1 ± 0.029,0.922 ± 0.015,0.819 ± 0.011,0.0654 ± 0.082,1.02 ± 0.014,0.992 ± 0.013,0.9492 ± 0.0032,0.883 ± 0.025,0.818 ± 0.03,0.159 ± 0.083,1 ± 0.019,0.976 ± 0.02,0.941 ± 0.02,0.867 ± 0.01,0.742 ± 0.022,0.474 ± 0.032,1.1 ± 0.046,1.05 ± 0.075,1.01 ± 0.073,0.858 ± 0.037,0.712 ± 0.045,0.0989 ± 0.046,1.07 ± 0.065,1.01 ± 0.04,1 ± 0.057,0.954 ± 0.058,0.847 ± 0.076,0.0987 ± 0.12,1.14 ± 0.075,1.08 ± 0.085,1.11 ± 0.057,0.996 ± 0.058,0.923 ± 0.032,0.00625 ± 0.024
Cc1ccc2nc(NCCN)c3ncc(C)n3c2c1,1.01 ± 0.027,0.968 ± 0.055,0.952 ± 0.087,0.847 ± 0.12,0.778 ± 0.082,-0.00828 ± 0.2,1.01 ± 0.018,0.998 ± 0.018,0.99 ± 0.021,0.92 ± 0.049,0.723 ± 0.11,-0.218 ± 0.13,0.996 ± 0.011,0.979 ± 0.014,0.974 ± 0.016,0.967 ± 0.019,0.957 ± 0.018,0.85 ± 0.046,1.06 ± 0.058,1 ± 0.06,0.883 ± 0.058,0.502 ± 0.14,0.0136 ± 0.12,-0.348 ± 0.14,0.9929 ± 0.0097,0.936 ± 0.097,0.885 ± 0.06,0.652 ± 0.085,0.265 ± 0.11,-0.253 ± 0.2,1.05 ± 0.043,1.01 ± 0.088,0.929 ± 0.11,0.604 ± 0.066,0.192 ± 0.13,-0.358 ± 0.23
Cc1cnc(Nc2ccc(OCCN3CCCC3)cc2)nc1Nc1cccc(S(=O)(=O)NC(C)(C)C)c1,1.04 ± 0.029,0.969 ± 0.0097,0.934 ± 0.022,0.823 ± 0.031,0.629 ± 0.024,-0.141 ± 0.14,1.01 ± 0.019,0.986 ± 0.019,0.887 ± 0.03,0.655 ± 0.066,0.258 ± 0.1,-0.184 ± 0.17,0.989 ± 0.019,0.964 ± 0.018,0.938 ± 0.028,0.876 ± 0.041,0.512 ± 0.19,0.0536 ± 0.034,1.02 ± 0.06,0.96 ± 0.079,0.813 ± 0.11,0.545 ± 0.23,0.0996 ± 0.12,-0.272 ± 0.058,1.01 ± 0.074,0.934 ± 0.075,0.877 ± 0.11,0.643 ± 0.19,0.104 ± 0.19,-0.306 ± 0.15,1.07 ± 0.082,0.997 ± 0.013,0.907 ± 0.023,0.766 ± 0.065,0.501 ± 0.11,-0.201 ± 0.095
